Experimental data: patent US20210353579A1, “HIGH PENETRATION COMPOSITIONS AND USES THEREOF” (Techfields Pharma Co., Ltd., priority 2006, published 2021)
Structures can show the parent of a compound that is named as a salt.

Experiments:
[1] = test system: cats with ocular hypertension; experiment: Intraocular pressure in cats with ocular hypertension; format: in vivo, cat
Method: The ability of diethylaminoethyl acetylsalicylate.HCl to reduce intraocular pressure (IOP) was evaluated in cats with ocular hypertension produced by previously done laser trabeculoplastry. IOP was determined with a pneumatonometer after light corneal anesthesia with dilute proparacaine. 14 Cats were divided into 2 groups. Baseline IOP was determined prior to treatment with the test compound aqueous solution. […] In group B, 30 mg/kg of diethylaminoethyl acetylsalicylate.HCl the area around eye (outside) of cat trice per day for 10 days.

[2] = test system: mice (MRL/LPR); experiment: Anti-lupus erythematosus activity; format: in vivo, mouse; settings: 30 mg/kg topically twice per day, after 6 weeks
[3] = test system: Human colon cancer cells (LS174J); experiment: Human colon cancer xenograft in nude mice, topical; settings: day 30, about 30 μl of 5% solution (1.5 mg) topically applied
Source text: Human colon cancer cells (LS174J, 2-3 mm^3 of tumor tissue was used in each mouse) are subcutaneously xenografted into the front leg of nude mice (BALB).

[4] = test system: Chinese white rabbits; experiment: Malassezia-induced lesions similar to psoriasis; format: in vivo, rabbit; settings: 5% aqueous solution twice per day, 10 days after application
Source text: Heavy suspensions of Malassezia [Rosenberg, E. W., et al., Mycopathologia, 72, 147-154 (1980)] were applied to the shaved skin on the backs of the Chinese white rabbits (n=4×6) twice (at 7 am and 7 pm) per day for 2 weeks, lesions similar to psoriasis resulted.

[5] = test system: Human breast cancer cells (BCAP-37); experiment: Human breast cancer xenograft in nude mice, topical; settings: day 42; 30 μl of 5% (1.5 mg) topically every 8 hours from day 14; control 800 ± 100
Method: Human breast cancer cells (BCAP-37, 2-3 mm^3 of tumor tissue was used in each mouse) are subcutaneously xenografted into the front leg of nude mice (BALB, 12 groups, 7 mice each group). […] Then 30 μl of 5% (equal to 1.5 mg of the HPPs) diethylaminoethyl acetylsalicylate.acetylsalicylic acid salt (P-1, in acetone); 1-piperidinepropyl 2[(2,6-dichlorophenyl)amino]benzene acetate.AcOH (P-2, in water), 1-pyrrolidinepropyl 2-(3-benzoylphenyl) propionate.AcOH (P-3, in water), 4-piperidinemethyl 2-(3-phenoxyphenyl)propionate.AcOH (P-4, in water), 3-piperidinemethyl 2-(ρ-isobutylphenyl) propionate.AcOH (P-5, in water), diethylaminoethyl 1-(p-chlorobenzoyl)-5-methoxy-2-methylindole 3-acetate.AcOH (P-11, in water), 2-(4-morpholinyl)ethyl (Z)-5-fluoro-2-methyl-1-[(4-methylsulfinyl) phenylmethylene]-1H-indene-3-acetate.AcOH (P-12, in water), diethylaminoethyl

[6] = test system: Hypertension patients; experiment: Anti-hypertension effect of transdermal atenolol in patients; format: in vivo, human
Method: 20 Hypertension patents were divided to 2 groups. Group A is control group (n=10, 1 ml of water was administrated to the chest of patients once per day) and group B is atenolol treated group (n=10, 100 mg of atenolol HCl salt was administrated to the chest of patients once per day) (Table 32).

[7] = 1 hour after 50 mg/kg on the back of sheep, 10% aqueous solution

## CCN(CC)CCOC(=O)c1ccccc1OC(C)=O.Cl [Diethylaminoethyl acetylsalicylate.HCl, diethylaminoethyl acetylsalicylate.HCl]
[1]; 30 mg/kg around the eye, 10 days
  anti-glaucoma activity: very strong anti-glaucoma activity

## CC(=O)O.CC(C)Cc1ccc(C(C)C(=O)OCC2CCCNC2)cc1 (stereo not drawn) [P-5, 3-piperidinemethyl 2-(ρ-isobutylphenyl) propionate.AcOH]
[2]
  skin lesions and lupus nephritis: all skin lesions and lupus nephritis were resolved
[3]
  Tumor size: 390 ± 110 mm^3
[4]
  lesions similar to psoriasis: the lesions were resolved
[5]
  Tumor size: 190 ± 50 mm^3

## CC(C)NCC(O)COc1ccc(CC(N)=O)cc1 (stereo not drawn) [atenolol HCl salt, reference compound]
[6]; 100 mg in 1 ml of pure water per day transdermally
  blood pressure of hypertension patients: controlled

## CC(C)NCC(O)COc1ccc(CC(N)=O)cc1 (stereo not drawn) [atenolol]
[6]; 2 weeks after treatment, value after the slash, 100 mg atenolol HCl salt to the chest once per day
  Blood pressure (2 weeks after treatment), second value: 113 ± 23 mmHg
[6]; before treatment, value after the slash, 100 mg atenolol HCl salt to the chest once per day
  Blood Pressure (before treatment), second value: 110 ± 20 mmHg

## CCN(CC)CCOC(=O)C(C)c1ccc(CC(C)C)cc1.O=C(O)CC(O)(CC(=O)O)C(=O)O (stereo not drawn) [diethylaminoethyl 2-(ρ-isobutylphenyl)propionate. citric acid salt]
[7]
  ibuprofen found in the milk: 55 ± 8 µg/mL
  ibuprofenamine found in the milk: 10 ± 5 µg/mL

## CCN(CC)CCOC(=O)c1ccccc1OC(C)=O.Cl [diethylaminoethyl acetylsalicylate•HCl]
[1]; base-line, prior to treatment, group B, 30 mg/kg around the eye
  Intraocular pressure, Base-line: 24.1 ± 0.7
[1]; day 10, group B, 30 mg/kg applied to the area around the eye for 10 days
  Intraocular pressure, End of treatment (day10): 16.1 ± 0.5
